The data set is described as follows: ability of solvent combination to dissolve hormones. It is filed as physicochemical. The conditions noted are these: combination of ethoxy diglycol and propylene glycol in any ratio, compared with either solvent alone.

The results in this text go back to patent US20150196568A1, “SYSTEM FOR USE BY COMPOUNDING PHARMACISTS TO PRODUCE HORMONE REPLACEMENT MEDICINE CUSTOMIZED FOR EACH CUSTOMER” (priority 2003, published 2015).

On to `C[C@]12CC[C@H]3[C@@H](CCC4=CC(=O)CC[C@@]43C)[C@@H]1CC[C@@H]2O` [testosterone], for which the ability to dissolve entry is on record as “better than using any of the solvents alone”.
